Calls of active or inactive are those of the source.
What was measured:
Bcl-2-related protein A1 [1] = molecular target: T1, Bcl-2-related protein A1 (Mus musculus, UniProt Q07440); experiment: Bfl-1 inhibitors blocking BH3 peptide binding, confirmation, biochemical, TR-FRET, mouse Bfl-1 (AID 621);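 further: TR-FRET binding of GST-Bfl-1 to FITC-labelled Bid peptide via terbium antibody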
T1 sequence (Q07440 whole entry): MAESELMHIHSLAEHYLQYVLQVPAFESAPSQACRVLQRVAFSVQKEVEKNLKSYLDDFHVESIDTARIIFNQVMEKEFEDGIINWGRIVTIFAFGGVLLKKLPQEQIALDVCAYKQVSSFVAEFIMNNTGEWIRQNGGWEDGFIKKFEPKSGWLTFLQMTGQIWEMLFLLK

Bcl-2-related protein A1 [2] = molecular target: T1, Bcl-2-related protein A1; experiment: Bfl-1 binding inhibitors, SAR follow-up, biochemical, fluorescence polarization (AID 1070)
[3] = molecular target: Glyceraldehyde-3-phosphate dehydrogenase (Homo sapiens, UniProt P04406)
Chain of Glyceraldehyde-3-phosphate dehydrogenase (P04406 whole entry): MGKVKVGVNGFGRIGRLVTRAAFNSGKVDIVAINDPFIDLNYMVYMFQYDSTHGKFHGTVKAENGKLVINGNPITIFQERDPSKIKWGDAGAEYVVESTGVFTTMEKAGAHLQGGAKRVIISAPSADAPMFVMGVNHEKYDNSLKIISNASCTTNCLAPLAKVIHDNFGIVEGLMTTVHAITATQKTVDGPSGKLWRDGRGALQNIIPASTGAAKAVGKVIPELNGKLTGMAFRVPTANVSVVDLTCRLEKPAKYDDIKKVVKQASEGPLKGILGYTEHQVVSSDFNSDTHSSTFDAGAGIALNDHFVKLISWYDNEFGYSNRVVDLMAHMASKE

Cytochrome P450 2D6 = Cytochrome P450 2D6 (Homo sapiens, UniProt P10635);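 further: CYP2D6 member of a cytochrome P450 panel assay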
Chain of Cytochrome P450 2D6 (P10635 whole entry): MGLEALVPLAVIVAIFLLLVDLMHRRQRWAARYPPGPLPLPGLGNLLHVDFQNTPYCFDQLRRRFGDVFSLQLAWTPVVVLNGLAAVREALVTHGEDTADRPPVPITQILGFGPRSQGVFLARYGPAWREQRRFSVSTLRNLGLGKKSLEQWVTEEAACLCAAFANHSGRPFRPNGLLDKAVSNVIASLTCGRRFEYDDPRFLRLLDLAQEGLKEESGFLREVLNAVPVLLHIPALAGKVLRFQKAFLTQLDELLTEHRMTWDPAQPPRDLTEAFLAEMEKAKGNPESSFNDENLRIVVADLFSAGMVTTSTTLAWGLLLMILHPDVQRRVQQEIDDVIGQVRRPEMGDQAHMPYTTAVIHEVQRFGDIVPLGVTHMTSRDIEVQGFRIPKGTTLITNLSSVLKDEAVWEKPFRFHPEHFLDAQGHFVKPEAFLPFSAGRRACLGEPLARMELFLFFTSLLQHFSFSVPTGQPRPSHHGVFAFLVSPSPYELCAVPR

Ephrin type-A receptor 4 = Ephrin type-A receptor 4 (Mus musculus, UniProt Q03137); experiment: inhibitors of EphA4 binding to KYL peptide, primary screen, biochemical, colorimetric, mouse EphA4 (AID 689); format: functional
Chain of Ephrin type-A receptor 4 (Q03137 whole entry): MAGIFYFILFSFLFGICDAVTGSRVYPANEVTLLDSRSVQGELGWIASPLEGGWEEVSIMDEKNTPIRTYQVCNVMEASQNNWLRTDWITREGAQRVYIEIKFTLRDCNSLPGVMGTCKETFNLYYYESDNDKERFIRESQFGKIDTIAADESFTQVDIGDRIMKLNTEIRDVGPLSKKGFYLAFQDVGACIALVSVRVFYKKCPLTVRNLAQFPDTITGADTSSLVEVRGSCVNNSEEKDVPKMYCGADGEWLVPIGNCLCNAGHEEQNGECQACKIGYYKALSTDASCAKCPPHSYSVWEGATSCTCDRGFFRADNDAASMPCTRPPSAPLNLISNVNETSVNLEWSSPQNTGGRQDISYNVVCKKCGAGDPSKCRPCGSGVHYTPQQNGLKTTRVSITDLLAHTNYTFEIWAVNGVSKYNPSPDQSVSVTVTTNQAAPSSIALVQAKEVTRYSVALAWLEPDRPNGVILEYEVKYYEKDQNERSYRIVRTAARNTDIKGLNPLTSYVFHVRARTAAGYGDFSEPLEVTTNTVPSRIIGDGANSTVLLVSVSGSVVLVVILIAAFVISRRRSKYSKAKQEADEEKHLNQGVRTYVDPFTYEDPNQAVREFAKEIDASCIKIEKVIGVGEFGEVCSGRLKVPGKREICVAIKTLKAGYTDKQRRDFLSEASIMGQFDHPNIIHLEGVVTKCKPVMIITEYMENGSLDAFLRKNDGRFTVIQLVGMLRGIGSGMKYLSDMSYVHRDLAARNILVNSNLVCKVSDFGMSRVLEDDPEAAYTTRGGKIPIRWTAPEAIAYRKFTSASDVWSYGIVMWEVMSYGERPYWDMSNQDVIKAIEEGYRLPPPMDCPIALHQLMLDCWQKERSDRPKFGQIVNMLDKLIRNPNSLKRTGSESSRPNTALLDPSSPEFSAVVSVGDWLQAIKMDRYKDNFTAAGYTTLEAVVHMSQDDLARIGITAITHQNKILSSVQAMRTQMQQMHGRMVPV

Bcl-2-related protein A1 [4] = molecular target: T1, Bcl-2-related protein A1; experiment: Bfl-1 inhibitors, primary screen, biochemical, fluorescence polarization, FITC-Bid, mouse (AID 432)
NADPH oxidase 1 [5] = molecular target: T2, NADPH oxidase 1 (Homo sapiens, UniProt Q9Y5S8); experiment: Late-stage luminescence-based cell-based dose response assay to identify inhibitors of NADPH oxidase 1 (NOX1): Purchased analogs 2.; format: functional
T2 sequence (Q9Y5S8 whole entry): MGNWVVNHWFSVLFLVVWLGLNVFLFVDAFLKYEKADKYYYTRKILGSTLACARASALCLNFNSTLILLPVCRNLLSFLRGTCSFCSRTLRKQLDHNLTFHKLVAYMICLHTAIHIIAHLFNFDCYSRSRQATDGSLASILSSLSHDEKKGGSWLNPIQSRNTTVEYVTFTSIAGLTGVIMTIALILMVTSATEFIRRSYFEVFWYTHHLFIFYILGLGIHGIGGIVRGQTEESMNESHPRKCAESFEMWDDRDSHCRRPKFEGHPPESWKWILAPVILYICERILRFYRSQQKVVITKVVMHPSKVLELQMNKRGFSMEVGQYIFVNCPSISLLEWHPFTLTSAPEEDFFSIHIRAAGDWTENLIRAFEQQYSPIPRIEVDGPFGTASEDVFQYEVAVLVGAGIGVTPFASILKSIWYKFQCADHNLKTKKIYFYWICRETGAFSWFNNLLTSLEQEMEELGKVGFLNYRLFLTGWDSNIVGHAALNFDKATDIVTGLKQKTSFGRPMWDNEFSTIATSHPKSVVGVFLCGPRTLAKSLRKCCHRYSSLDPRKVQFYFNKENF

[6] = molecular target: E3 ubiquitin-protein ligase Mdm2 (Homo sapiens, UniProt Q00987); experiment: enhancers of MDM2-luciferase reporter signal, concentration-effect titration, project on inhibitors of MDM2 ubiquitin ligase, cellular assay, luminescent readout, 384-well plate format (AID 1394); format: functional;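 further: MDM2 E3 inhibitors raise luminescence so EC50 is for signal enhancement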
Chain of E3 ubiquitin-protein ligase Mdm2 (Q00987 whole entry): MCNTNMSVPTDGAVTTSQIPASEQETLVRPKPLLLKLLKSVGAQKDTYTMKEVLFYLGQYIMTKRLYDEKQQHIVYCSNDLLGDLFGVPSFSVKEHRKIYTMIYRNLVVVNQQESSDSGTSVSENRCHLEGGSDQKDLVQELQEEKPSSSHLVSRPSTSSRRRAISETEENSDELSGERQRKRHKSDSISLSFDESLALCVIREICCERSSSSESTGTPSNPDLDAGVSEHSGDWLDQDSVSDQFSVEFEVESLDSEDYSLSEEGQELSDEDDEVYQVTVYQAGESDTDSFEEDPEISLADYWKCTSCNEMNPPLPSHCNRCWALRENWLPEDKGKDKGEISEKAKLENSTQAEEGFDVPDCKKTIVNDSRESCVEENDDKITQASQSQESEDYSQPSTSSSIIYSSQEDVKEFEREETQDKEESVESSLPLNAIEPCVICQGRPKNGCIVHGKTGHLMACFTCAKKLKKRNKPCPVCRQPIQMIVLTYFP

NADPH oxidase 1 [7] = molecular target: T2, NADPH oxidase 1; experiment: Late-stage luminescence-based cell-based dose response assay to identify inhibitors of NADPH oxidase 1 (NOX1): Synthesized analogs 3.; format: functional
Fibrinogen beta chain [8] = molecular target: T3, Fibrinogen beta chain (Homo sapiens, UniProt P02675); experiment: Fluorescence polarization-based biochemical high throughput dose response assay to identify inhibitors that disrupt the binding of a cyclic peptide (Tn7) to the fibrin proteolytic product D-Dimer and fragment E complex [DD(E )].
T3 sequence (P02675 whole entry, the tested form may be a part): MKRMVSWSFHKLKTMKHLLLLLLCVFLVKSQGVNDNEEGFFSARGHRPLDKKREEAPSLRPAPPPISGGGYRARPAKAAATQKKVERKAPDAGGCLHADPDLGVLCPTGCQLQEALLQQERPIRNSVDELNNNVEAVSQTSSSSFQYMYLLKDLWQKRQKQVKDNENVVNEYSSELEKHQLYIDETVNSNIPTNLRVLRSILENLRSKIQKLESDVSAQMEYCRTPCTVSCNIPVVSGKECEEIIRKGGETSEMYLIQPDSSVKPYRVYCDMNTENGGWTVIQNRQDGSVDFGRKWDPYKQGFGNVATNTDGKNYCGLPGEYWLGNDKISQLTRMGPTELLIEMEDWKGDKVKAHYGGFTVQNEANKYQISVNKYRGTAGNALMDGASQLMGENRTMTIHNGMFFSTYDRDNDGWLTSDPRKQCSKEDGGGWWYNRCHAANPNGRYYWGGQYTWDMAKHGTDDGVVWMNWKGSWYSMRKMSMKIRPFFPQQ

Troponin, cardiac muscle = Troponin, cardiac muscle (Homo sapiens, UniProt P19429+P45379+P63316); experiment: Fluorescence-based biochemical high throughput dose response assay for activators of the calcium sensitivity of cardiac Regulated Thin Filaments (RTF). [Related pubchem assays (depositor defined):AID493008, AID493018, AID504382, AID504383]; format: protein-complex assay
Fibrinogen beta chain [9] = molecular target: T3, Fibrinogen beta chain; experiment: Fluorescence polarization-based biochemical high throughput dose response assay to identify inhibitors that disrupt the binding of a cyclic peptide (Tn6) to the fibrin proteolytic product D-Dimer and fragment E complex [DD(E )].
Vero = experiment: West Nile virus antiviral activity, cell-based, CPE readout (AID 1621); format: functional; conditions: Chlorocebus sabaeus

O=C1C(Cl)=C(N2CCCCC2)C(=O)N1c1ccc(Cl)c(Cl)c1
IC50 (Bcl-2-related protein A1 [1]): 1.3 µM (active) | IC50 (Bcl-2-related protein A1 [2]): > 100 µM (not active) | IC50 [3]: > 100 µM (not active)

CCSc1nnc(NC(=O)C(C(F)(F)F)C(F)(F)F)s1
AC50 (Cytochrome P450 2D6): 25.1 µM (inconclusive) | IC50 (Ephrin type-A receptor 4): 4.1 µM (active) | IC50 (Bcl-2-related protein A1 [4]): 2.85 µM (active) | IC50 (Bcl-2-related protein A1 [1]): 2.66 µM (active)

COc1ccc(/C=N/Nc2c(Cl)cc(Cl)cc2Cl)cc1
IC50 (NADPH oxidase 1 [5]): > 17 µM (not active)

CSc1nsc(/C=C/Nc2ccc(F)cc2)c1C#N
EC50 [6]: 2.4 µM (not active)

CN1c2ccc(N)cc2Sc2cc(C(=O)c3ccccc3)ccc21
IC50 (NADPH oxidase 1 [7]): 0.201 µM (active)

[O-][n+]1c2c([n+]([O-])c3cc(N4CCCC4)c(F)cc31)CCC2
IC50 (Fibrinogen beta chain [8]): > 83.3 µM (inactive) | EC50 (Troponin, cardiac muscle): > 2.65 µM (active) | IC50 (Fibrinogen beta chain [9]): 26.1 µM (inactive)

Cc1ccc2cc(C#N)c(N3CCCN(C(S)=NCCCN(C)C)CC3)nc2c1
IC50 (Vero): 24.4 µM (active)
